ChEMBL document CHEMBL4673352, “Discovery of AZD4573, a Potent and Selective Inhibitor of CDK9 That Enables Short Duration of Target Engagement for the Treatment of Hematological Malignancies” (J Med Chem, 2020)
≈ marks a conversion by molar mass, not a printed value.

What was measured:
[1] = Solubility of compound in phosphate buffer at pH 7.4 using dried form of sample; type: physicochemical
[2] = Intrinsic clearance in rat cryopreserved hepatocytes assessed per million cells […]; type: ADME, cell-based, Hepatocyte; conditions: for hepatocyte CLint: cryopreserved hepatocytes, read-out: CLH
[3] = Intrinsic clearance in human liver microsome; type: ADME, microsomes; conditions: for microsomal CLint: liver microsomes, read-out: CLH
CDK9/cyclin T1 = CDK9/cyclin T1 (Homo sapiens, UniProt P50750); assay: Inhibition of recombinant full length human N-terminal GST-fused CDK9 (1 to 372 residues)/His-tagged CyclinT1 (1 to 726 residues) expressed in baculovirus infected insect cells using FITC-X-GSRTPMY-NH2 as substrate preincubated for 10 mins followed by MgCl2 addition and measured after 90 mins in presence of 5 mM ATP by mobility shift assay
[4] = biological target: T1, Cyclin-dependent kinase 9 (Homo sapiens, UniProt P50750); assay: Inhibition of CDK9 in human MCF7 cells assessed as reduction in RNA Polymerase 2 CTD phosphorylation at Ser2 residues measured after 6 hrs by immunofluorescence assay; type: cell-based
[5] = biological target: T1, Cyclin-dependent kinase 9; assay: Inhibition of CDK9 in human MV4-11 cells assessed as induction of caspase-3/7 activation measured after 6 hrs followed by Caspase-glo reagent based assay; type: cell-based
[6] = Lipophilicity, log D of compound in buffer/octanol at pH 7.4 by shake flask method; type: physicochemical
[7] = Drug level in human liver microsomes treated with (1S,3R)-3-Acetamido-N-(5-chloro-4-(4,5,6,7-tetrahydropyrazolo-[1,5-a]pyridin-3-yl)pyridin-2-yl)cyclohexanecarboxamide at 10 uM measured after 1 hr in presence of NADPH by LC-UV-MS analysis; type: ADME, Microsome
[8] = Drug level in human hepatocytes treated with (1S,3R)-3-Acetamido-N-(5-chloro-4-(4,5,6,7-tetrahydropyrazolo-[1,5-a]pyridin-3-yl)pyridin-2-yl)cyclohexanecarboxamide; type: ADME, cell-based, Hepatocyte
[9] = Intrinsic clearance in human cryopreserved hepatocytes assessed per million cells […]; type: ADME, cell-based, Hepatocyte; conditions: read-out: CLH
[10] = phosphate buffer, read-out: solubility

T1 sequence (P50750 whole entry): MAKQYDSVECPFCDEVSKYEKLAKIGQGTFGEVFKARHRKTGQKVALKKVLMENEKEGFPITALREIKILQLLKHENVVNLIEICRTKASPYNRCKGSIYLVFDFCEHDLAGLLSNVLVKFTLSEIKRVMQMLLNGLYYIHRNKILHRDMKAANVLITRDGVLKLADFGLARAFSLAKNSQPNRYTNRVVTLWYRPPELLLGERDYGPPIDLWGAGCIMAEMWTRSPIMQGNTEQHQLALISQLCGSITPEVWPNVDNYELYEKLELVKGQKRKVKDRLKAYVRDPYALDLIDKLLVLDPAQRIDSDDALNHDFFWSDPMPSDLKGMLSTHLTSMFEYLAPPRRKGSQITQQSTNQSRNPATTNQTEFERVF
Chain of CDK9/cyclin T1 (O60563 whole entry, the tested form may be a part): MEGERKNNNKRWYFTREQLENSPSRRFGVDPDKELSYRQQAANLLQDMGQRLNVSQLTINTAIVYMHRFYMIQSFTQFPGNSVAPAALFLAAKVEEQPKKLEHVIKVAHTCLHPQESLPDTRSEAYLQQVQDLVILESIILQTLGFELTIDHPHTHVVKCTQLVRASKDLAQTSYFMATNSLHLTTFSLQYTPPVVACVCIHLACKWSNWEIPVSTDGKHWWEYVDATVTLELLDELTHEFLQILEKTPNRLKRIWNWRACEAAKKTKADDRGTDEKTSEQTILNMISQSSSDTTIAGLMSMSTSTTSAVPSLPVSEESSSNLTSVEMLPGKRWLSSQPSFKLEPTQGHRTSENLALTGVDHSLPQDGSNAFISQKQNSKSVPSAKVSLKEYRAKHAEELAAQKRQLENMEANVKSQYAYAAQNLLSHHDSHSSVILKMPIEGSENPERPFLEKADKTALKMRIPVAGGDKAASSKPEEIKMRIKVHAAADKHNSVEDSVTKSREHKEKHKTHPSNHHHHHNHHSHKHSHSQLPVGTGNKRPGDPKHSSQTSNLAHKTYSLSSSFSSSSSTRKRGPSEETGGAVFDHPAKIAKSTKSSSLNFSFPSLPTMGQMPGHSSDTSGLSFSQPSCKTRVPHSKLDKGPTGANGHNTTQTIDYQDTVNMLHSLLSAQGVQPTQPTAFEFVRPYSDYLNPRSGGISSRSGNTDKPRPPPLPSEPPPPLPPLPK
Chain of CDK9/cyclin T1 (P50750 whole entry, the tested form may be a part): as the sequence (P50750 whole entry) above

SMILES	solubility [1, 10] [µM]	hepatocyte CLint [2] [µL/min/1e6 cells]	microsomal CLint [3] [µL/min/mg]	IC50 (CDK9/cyclin T1) [nM]	IC50 [4] [nM]	EC50 [5] [nM]	logD [6]	Drug uptake [7]	Drug uptake [8]	hepatocyte CLint [9] [µL/min/1e6 cells]	solubility ([1]; buffer) [µM]	CLH ([2]; hepatocytes) [µL/min]	CLH ([3]; microsomes) [µL/min/mg]
CC(=O)N[C@@H]1CCC[C@H](C(=O)Nc2cc(-c3cnn4c3OCCC4)c(Cl)cn2)C1	110 (≈ 46 µg/mL)	34	< 3	110	350	260	2.6	–	–	–	–	–	–
CC(=O)N[C@@H]1CCC[C@H](C(=O)Nc2cc(-c3cn[nH]c3CCCC(=O)O)c(Cl)cn2)C1	–	–	–	–	–	–	–	Active	Active	–	–	–	–
CC(=O)N[C@@H]1CCC[C@H](C(=O)Nc2cc(-c3cnn4c3CC(C)(C)C4O)c(Cl)cn2)C1 (stereo not given in full)	–	–	14	20	170	–	–	–	–	48	–	–	–
CC(=O)N[C@@H]1CCC[C@H](C(=O)Nc2cc(-c3cn[nH]c3CC(C)(C)CO)c(Cl)cn2)C1	–	–	24	–	> 2300	–	–	–	–	< 1	–	–	–
CC(=O)N[C@@H]1CCC[C@H](C(=O)Nc2cc(-c3nnn4c3CCCC4)c(Cl)cn2)C1	530 (≈ 221 µg/mL)	–	–	4400	> 2600	–	2	–	–	–	–	–	–
CC(=O)N[C@@H]1CCC[C@H](C(=O)Nc2cc(-c3cnn4c3CCCC4)c(F)cn2)C1	> 1000	73	< 3	–	100	160	2.9	–	–	–	–	–	–
CC(=O)N[C@@H]1CCC[C@H](C(=O)Nc2cc(-c3cnn4c3COCC4)c(Cl)cn2)C1	220 (≈ 91.9 µg/mL)	18	< 3	1000	2100	1900	2.4	–	–	–	–	–	–
CC(=O)N[C@@H]1CCC[C@H](C(=O)Nc2cc(-c3cnc4n3CCCC4)c(Cl)cn2)C1	600 (≈ 250 µg/mL)	12	16	660	1200	1200	2.7	–	–	–	–	–	–
CC(=O)N[C@@H]1CCC[C@H](C(=O)Nc2cc(-c3cnn4ccccc34)c(Cl)cn2)C1	45 (≈ 18.5 µg/mL)	–	–	61	140	150	3.6	–	–	–	–	–	–
CC(=O)N[C@@H]1CCC[C@H](C(=O)Nc2cc(-c3cnn4c3CC(C)(C)CC4)ccn2)C1	640 (≈ 262 µg/mL)	35	29	–	48	39	3.1	–	–	4.3	–	–	–
CC(=O)N[C@@H]1CCC[C@H](C(=O)Nc2cc(-c3cnn4c3CCCC4O)c(Cl)cn2)C1 (stereo not given in full)	–	–	18	–	720	–	–	Active	Active	33	–	–	–
CC(=O)N[C@@H]1CC[C@H](C(=O)Nc2cc(-c3cnn4c3CC(C)(C)C4)c(Cl)cn2)C1	35 (≈ 14.6 µg/mL)	97	38	–	40	15	3.5	–	–	5.8	–	–	–
CC(=O)N[C@@H]1CCC[C@H](C(=O)Nc2cc(-c3cnn4c3CCC4)c(Cl)cn2)C1	160 (≈ 64.3 µg/mL)	72	< 3	180	530	330	2.9	–	–	–	–	–	–
CC(=O)N[C@@H]1CCC[C@H](C(=O)Nc2cc(-c3cnn4c3CC(C)C4)c(Cl)cn2)C1 (stereo in doubt; 28)	–	97	13	26	36	92	3.4	–	–	–	79 (≈ 32.9 µg/mL)	–	–
CC(=O)N[C@@H]1CCC[C@H](C(=O)Nc2cc(-c3cnn4c3NCCC4)c(Cl)cn2)C1	860 (≈ 359 µg/mL)	10	6.2	–	860	670	2.4	–	–	–	–	–	–
CC(=O)N[C@@H]1CCC[C@H](C(=O)Nc2cc(-c3cnn4c3CC(C)(C)C4)c(C)cn2)C1	600 (≈ 246 µg/mL)	53	19	–	–	–	3.1	–	–	–	–	–	–

SMILES	solubility [1, 10] [µM]	hepatocyte CLint [2] [µL/min/1e6 cells]	microsomal CLint [3] [µL/min/mg]	IC50 (CDK9/cyclin T1) [nM]	IC50 [4] [nM]	EC50 [5] [nM]	logD [6]	Drug uptake [7]	Drug uptake [8]	hepatocyte CLint [9] [µL/min/1e6 cells]	solubility ([1]; buffer) [µM]	CLH ([2]; hepatocytes) [µL/min]	CLH ([3]; microsomes) [µL/min/mg]
CC(=O)N[C@@H]1CCC[C@H](C(=O)Nc2cc(-c3cnn(C)c3C)c(Cl)cn2)C1	960 (≈ 374 µg/mL)	10	3.3	270	440	560	2.6	–	–	< 1	–	–	–
CC(=O)N[C@@H]1CCC[C@H](C(=O)Nc2cc(-c3cnc4n3CCC4)c(Cl)cn2)C1	490 (≈ 197 µg/mL)	19	9.7	310	760	700	2.6	–	–	–	–	–	–
CC(=O)N[C@@H]1CCC[C@H](C(=O)Nc2cc(-c3cn[nH]c3CCCCO)c(Cl)cn2)C1	–	–	15	–	> 2000	–	–	Active	Active	2.9	–	–	–
CC(=O)N[C@@H]1CCC[C@H](C(=O)Nc2cc(-c3cnn4c3CN(C)CC4)c(Cl)cn2)C1	870 (≈ 375 µg/mL)	7.7	< 3	220	800	910	2.1	–	–	–	–	–	–
CC(=O)N[C@@H]1CCC[C@H](C(=O)Nc2cc(-c3cnn4c3CC(C)(C)C4)c(C#N)cn2)C1	380 (≈ 160 µg/mL)	47	26	–	150	140	3.2	–	–	< 1	–	–	–
CC1(C)Cc2c(-c3cc(NC(=O)[C@H]4C[C@@H](O)C4)ncc3Cl)cnn2C1	15 (≈ 5.41 µg/mL)	157	25	–	44	38	3.2	–	–	106	–	–	–
CC(=O)N[C@@H]1CCC[C@H](C(=O)Nc2cc(-c3cnn4c3CCCC4)ccn2)C1	730 (≈ 278 µg/mL)	33	< 3	230	520	440	2.4	–	–	–	–	–	–
CC(=O)N[C@@H]1CCC[C@H](C(=O)Nc2cc(-c3cnn4c3CC(C)(C)C4)ccn2)C1	970 (≈ 384 µg/mL)	45	< 3	29	150	100	2.8	–	–	< 1	–	–	–
CC(=O)N[C@@H]1CCC[C@H](C(=O)Nc2cc(-c3cnc4ccccn34)c(Cl)cn2)C1	120 (≈ 49.4 µg/mL)	–	–	750	1600	–	3	–	–	–	–	–	–
CC(=O)N[C@@H]1CCC[C@H](C(=O)Nc2cc(-c3cnn4c3CC(C)C4)c(Cl)cn2)C1 (stereo in doubt; 27)	–	–	–	27	77	77	–	–	–	–	159 (≈ 66.1 µg/mL)	85	18
CC(=O)N[C@@H]1CCC[C@H](C(=O)Nc2cc(-c3cnn4c3CC(C)(C)CC4)c(F)cn2)C1	160 (≈ 68.4 µg/mL)	42	178	< 3	10	15	3.6	–	–	23	–	–	–
CC(=O)N[C@@H]1CCC[C@H](C(=O)Nc2cc(-c3cnc(C)n3C(C)C)ccn2)C1	660 (≈ 253 µg/mL)	7.4	3.6	380	920	660	1.9	–	–	–	–	–	–
CC(=O)N[C@@H]1CCC[C@H](C(=O)Nc2cc(-c3cnc(C)n3C)c(Cl)cn2)C1	> 1000	–	–	5300	> 3000	–	2.2	–	–	–	–	–	–
CC(=O)N[C@@H]1CCC[C@H](C(=O)Nc2cc(-c3cnc4n3CC(C)(C)C4)c(Cl)cn2)C1	280 (≈ 120 µg/mL)	28	63	–	–	–	3.6	–	–	2.5	–	–	–
CC(=O)N[C@@H]1CCC[C@H](C(=O)Nc2cc(-c3cnn4c3CCCCC4)c(Cl)cn2)C1	104 (≈ 44.7 µg/mL)	51	39	–	92	180	3.6	–	–	4.6	–	–	–
